Activity calls are given as the source filed them.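 Rule for the calls: active = compounds whose fitted half-maximal concentration in the cell-protection dose series is at or below a set limit; inactive = the rest.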
test system: H9c2 cardiomyocytes, 2-deoxyglucose stress, ATP luminescence, 2 h; experiment: protection of cardiomyocytes from 2-deoxyglucose injury, dose response, cell-based, 2-deoxyglucose stress, uHTS hits (AID 588780)

Compound	IC50
CCSc1nnc(NC(=O)C2Cc3ccccc3CN2S(=O)(=O)CC)s1 (stereo not drawn)	43.6 µM (inactive)
COc1cc(-c2nnc(-c3cc(-c4ccccc4)nc4ccccc34)o2)cc(OC)c1OC	5.22 µM
CS(=O)(=O)c1ccc(-c2cnc3c(NC=O)cc(-c4ccsc4)cn23)cc1	> 79 µM (inactive)
CCc1nnc(NC(=O)CCC(=O)N2CCN(C3c4ccccc4-c4ccccc43)CC2)s1	> 79 µM (inactive)
COC(=O)c1[nH]c2c(c1C)C(=O)CC(c1cc(OC)ccc1OC)C2 (stereo not drawn)	> 79 µM (inactive)
Cc1nc(SCC(=O)NCc2ccc(F)cc2)c2c(=O)n(C)c(=O)n(C)c2n1	> 79 µM (inactive)
COc1cc(C(=O)Nc2nc(-c3cccs3)cs2)cc(OC)c1OC	7.2 µM
O=C(Nc1cc(S(=O)(=O)N2CCOCC2)ccc1N1CCCCC1)c1cc(-c2ccccn2)nc2ccccc12	> 79 µM (inactive)
Cc1[nH]c2ccccc2c1/C=N/NC(=O)c1cc(-c2ccccc2)n[nH]1	> 79 µM (inactive)
CC1(C)CC2C1CCC1(O)CC2(C)CCC1N(O)c1ccc(C(=O)NCCO)cn1 (stereo not drawn)	28.5 µM
Cc1cnc(NC(=O)CSc2nc3ccccc3c(=O)[nH]2)s1	> 79 µM (inactive)
CCOC(=O)[C@H]1[C@H]2COc3ccc(Br)cc3[C@@H]2N2C(=O)c3cc(OC)c(OC)cc3NC(=O)[C@@]12C	40 µM (inactive)
COc1cccc(/C=N/Nc2nc3ccccc3n3cnnc23)c1	> 79 µM (inactive)
COc1ccc(-c2cc(C(=O)N(C)Cc3nc4ccccc4c(=O)[nH]3)c3ccccc3n2)cc1OC	> 79 µM (inactive)
O=C(Nc1ccccc1)c1nc[nH]c1C(=O)NCCCCNC(=O)c1[nH]cnc1C(=O)Nc1ccccc1	> 79 µM (inactive)
Cc1cc(NC(=O)c2cccs2)cc(-c2nc3ncccc3o2)c1O	> 79 µM (inactive)
C=CCc1ccccc1OCC(=O)N/N=C/c1ccc(OC(C)=O)cc1OC(C)=O	> 79 µM (inactive)
COc1ccc(-c2cc3nc(-c4ccccc4)cc(N4CCN(C(C)=O)CC4)n3n2)cc1	12 µM
O=C(NCC(=O)N(Cc1cccs1)C(C(=O)NC1CCCCC1)c1ccco1)c1cccs1 (stereo not drawn)	15.3 µM
Cc1cccc(NC(=O)c2nc[nH]c2C(=O)NCCCCCCNC(=O)c2[nH]cnc2C(=O)Nc2cccc(C)c2)c1	> 79 µM (inactive)
COc1ccccc1OCCSc1nc2ccccc2c(=O)[nH]1	> 79 µM (inactive)
O=C(CCc1nc2ccccc2c(=O)[nH]1)N1CCN(S(=O)(=O)c2ccc(F)cc2)CC1	> 79 µM (inactive)
O=C(COc1cccc2c1CCNC2=O)Nc1ccc(Cl)cc1	> 79 µM (inactive)
CC(C)[C@H](NC(=O)c1ccccc1Cl)C(=O)Nc1nc(-c2ccccn2)cs1	> 79 µM (inactive)

Compound	IC50
COc1cc(-c2cc(NC=O)c3ncc(-c4ccc(C(C)=O)cc4)n3c2)cc(OC)c1OC	> 79 µM (inactive)
COc1cc2c(C#CCCCO)c(-c3ccsc3)oc(=O)c2cc1OC	> 79 µM (inactive)
Cc1ccc(C(=O)Nc2cccc(C(F)(F)F)c2)cc1NC(=O)c1csc(-c2ccncc2)n1	> 79 µM (inactive)
COc1ccc(C(=O)COC(=O)Cc2n[nH]c(=O)c3ccccc23)c(OC)c1	> 79 µM (inactive)
O=C(COC(=O)c1ccc([N+](=O)[O-])s1)Nc1ccc(Cl)cn1	> 79 µM (inactive)
CCn1ncc2c1C(=O)NC1c3ccccc3C(=O)N21 (stereo not drawn)	> 79 µM (inactive)
COc1cc(NC(=O)c2cc3c(C)nc4ccccc4c3o2)cc(OC)c1OC	> 79 µM (inactive)
Cc1cc(C)cc(OCC(=O)Nc2cccc(-c3nc4ncccc4o3)c2)c1	> 79 µM (inactive)
CC(C)(C)NC(=O)COC(=O)c1c2c(nc3ccccc13)CCC2	15.1 µM
O=C(COC(=O)CCc1nc2ccccc2c(=O)[nH]1)NC(c1ccccc1)c1ccccc1	> 79 µM (inactive)
CS(=O)(=O)Nc1cccc(NC(=O)c2cccc3c(-c4cccc(C(N)=O)c4)coc23)c1	> 79 µM (inactive)
Cc1cccc(C(C)C)c1NC(=O)C(C)OC(=O)Cc1n[nH]c(=O)c2ccccc12 (stereo not drawn)	> 79 µM (inactive)
CC(C)CCN(C(=O)CNC(=O)c1ccco1)C(C(=O)NC1CCCCC1)c1ccco1 (stereo not drawn)	37.5 µM (inactive)
Cc1nn(-c2ccccc2)nc1C(=O)Nc1cccc(C(=O)NC2CC2)c1	> 79 µM (inactive)
O=C(Nc1nc(-c2ccccn2)cs1)c1cc(S(=O)(=O)N2CCOCC2)ccc1F	> 79 µM (inactive)
O=C(Nc1cccc(/C=C/c2ccccn2)c1)c1ccc(-n2cncn2)cc1	42.9 µM (inactive)
CCOC(=O)c1nn(-c2cccc(OC)c2)c2nc(Nc3ccccc3)cc(=O)n12	> 79 µM (inactive)
COc1ccc2[nH]c(=O)c(-c3nnn(-c4ccc(F)cc4)n3)cc2c1	> 79 µM (inactive)
O=c1c2ccccc2nc(-c2ccc(Cl)c(Cl)c2)n1O	8.16 µM
CC(=O)Nc1cccc(-c2cc(NC=O)c3ncc(-c4cccc(C(C)=O)c4)n3c2)c1	> 79 µM (inactive)
O=C(COc1cccc(NC(=O)c2cccc([N+](=O)[O-])c2)c1)c1ccc(F)cc1	> 79 µM (inactive)
CNS(=O)(=O)c1ccc2nc(NC(=O)/C=C/c3ccco3)sc2c1	> 79 µM (inactive)
C=CC[C@@H](CC(=O)N[C@H](CO)Cc1ccccc1)C(=O)N[C@@H](COC(=O)[C@@H](CC=C)CC(=O)OC(C)(C)C)Cc1ccccc1	17.5 µM
Cc1ccc2[nH]c(=O)c(CN(Cc3ccco3)S(=O)(=O)c3c(C)ccc4nsnc34)cc2c1	29.7 µM

Compound	IC50
O=C(Nc1ccc2c(c1)[nH]c(=O)c1ccccc12)C(F)(F)F	> 79 µM (inactive)
O=C1N[C@H](Cc2ccccc2)COC(=O)[C@@H](Cc2ccc(F)cc2)C/C=C\C[C@H]1CC(=O)N(CCO)Cc1ccccc1	20.5 µM
CCc1nc2ccc(C(=O)Nc3cc(-c4ccccc4)ccc3OC)cn2c1N(C)Cc1nccs1	9.62 µM
O=C(Nc1nc(-c2ccc(S(=O)(=O)N3CCCC3)cc2)cs1)C1COc2ccccc2O1 (stereo not drawn)	> 79 µM (inactive)
COc1nc(N/N=C/c2cc3c(cc2Br)OCO3)nc(N2CCOCC2)n1	15.7 µM
NC(=O)COc1ccc2oc(=O)cc(-c3cc4ccccc4o3)c2c1	> 79 µM (inactive)
COc1ccc2c(c1)C(=O)[C@@H](O)[C@H](c1ccc(OC)c(Br)c1)O2	5.76 µM
Cc1sc2nc(COC(=O)Cc3ccccc3)[nH]c(=O)c2c1C	> 79 µM (inactive)
COc1ccc(-c2cnc3c(NC=O)cc(-c4cccc(NS(C)(=O)=O)c4)cn23)cc1OC	14.4 µM
FC(F)(F)c1nnc2ccc(N3CCCC3)nn12	> 79 µM (inactive)
O=C1c2ccccc2NC(c2ccc(Cl)cc2Cl)N1O (stereo not drawn)	35 µM (inactive)
O=C(Nc1ccc2nc(N3CCOCC3)sc2c1)c1cc2ccccc2o1	> 79 µM (inactive)
CSc1nc(Cl)c(Br)c(N2CC2)n1	> 79 µM (inactive)
CCc1cc(C(=O)Nc2nc(-c3ccccn3)cs2)sc1C	> 79 µM (inactive)
Cc1ccc(N2C(=O)CS/C2=C(\C(Cl)=C(Cl)Cl)[N+](=O)[O-])cc1	> 79 µM (inactive)
COC(=O)/C=C/c1ccc(OC(=O)OC)c(OC(=O)OC)c1	> 79 µM (inactive)
O=C(N/N=C/c1cccc(O)c1)c1cc(-c2ccc3c(c2)OCO3)n[nH]1	> 79 µM (inactive)
COc1ccccc1CN(C)C(=O)c1cc(-c2cc(OC)c(OC)c(OC)c2)nc2ccccc12	6.57 µM
O=C(N/N=C\c1ccccn1)C1COc2cc3ccccc3cc2O1 (stereo not drawn)	8.87 µM
COc1ccc(N=Cc2cc(Cl)ccc2O)cc1Cl	> 79 µM (inactive)
O=C(N/N=C/c1ccncc1)c1ccc(COc2cccc3cccnc23)cc1	> 79 µM (inactive)
CCOc1ccc2ccccc2c1C(=O)N[C@@H]1C(=O)N2[C@@H]1SC(C)(C)[C@@H]2C(=O)O	47.1 µM (inactive)
COc1ccc(Nc2nnc(-c3ccc(O)cc3)c3ccccc23)cc1C(N)=O	> 79 µM (inactive)
CCN(CC)S(=O)(=O)c1ccc(Nc2nc3ccccc3n3nnnc23)cc1	> 79 µM (inactive)

Compound	IC50
COC(=O)Sc1nc(N2CCOCC2)c2c(c1C#N)CC(C)(C)OC2	> 79 µM (inactive)
Nc1cc2[nH]c(=O)c3ccccc3c2cc1[N+](=O)[O-]	15.1 µM
Cc1ccc(-c2n[nH]c(=O)c3ccccc23)cc1S(N)(=O)=O	> 79 µM (inactive)
CCCCOc1ccc(C(=O)NCC(=O)N(C)Cc2nc3ccccc3c(=O)[nH]2)cc1	> 79 µM (inactive)
O=C(NN=Cc1ccc(N2CCOCC2)s1)c1ccc([N+](=O)[O-])cc1	> 79 µM (inactive)
O=C(Nc1cccc(N=Cc2cc(Cl)cc(Br)c2O)c1)c1ccco1	26.5 µM
C=CCOc1ccc(C=Nc2ccc(OC)cc2)c(O)c1	23.8 µM
CCC(=O)N1CCN(c2ccc(NC(=O)c3cc4ccccc4o3)cc2Cl)CC1	> 79 µM (inactive)
O=C(COc1ccccc1F)Nc1nc(-c2ccccn2)cs1	> 79 µM (inactive)
CCCCCn1nc(C(=O)OCC(=O)c2c(N)n(C)c(=O)n(C)c2=O)c2ccccc2c1=O	20.1 µM
Oc1c(Cl)cc(Cl)cc1C=Nc1ccc(N2CCOCC2)cc1	31.5 µM (inactive)
O=C(NCC1CCCO1)C(c1ccc(F)cc1)N(C(=O)Cn1nnc(-c2ccc(F)cc2)n1)c1cccc(O)c1 (stereo not drawn)	13.1 µM
CCOC(=O)c1c2c3c(cccc3n(C)c1=O)C(=O)c1ccccc1-2	> 79 µM (inactive)
O=C(NC1CCCCC1)C(c1ccc2ncccc2c1)N(Cc1ccccc1)C(=O)c1ccc2c(c1)OCCO2 (stereo not drawn)	32 µM (inactive)
CCOC(=O)c1c(C)nc2sc3c(=O)n(-c4ccc(C(C)=O)cc4)cnc3c2c1-c1ccc(OC)cc1	> 79 µM (inactive)
CC1(C)Cc2c(C#N)c(SCc3nc4ccccc4[nH]3)nc(N3CCOCC3)c2CO1	> 79 µM (inactive)
CN(C)S(=O)(=O)c1ccc(NC(=O)COC(=O)Cn2[nH]c(=O)c3ccccc3c2=O)cc1	9.56 µM
COc1cccc(-c2cnc3c(NC(C)=O)cc(-c4cc(OC)c(OC)c(OC)c4)cn23)c1	> 79 µM (inactive)
COCc1c(C(=O)Nc2ccc3nc(N4CCOCC4)sc3c2)oc2ccccc12	> 79 µM (inactive)
CCCn1nc(C(=O)Nc2nc(-c3ccccn3)cs2)c2ccccc2c1=O	> 79 µM (inactive)
C/C(=N\NC(=O)c1cccnc1)c1ccc(OC2OCCOC2Oc2ccc(/C(C)=N/NC(=O)c3cccnc3)cc2)cc1 (stereo not drawn)	13.1 µM

Source: PubChem BioAssay AID588780 (Sanford-Burnham Center for Chemical Genomics, 2011)
